{"source": "patent US11564913B2", "about": "“Compositions and methods for treating cancer” (Children's Hospital Medical Center, priority 2019, dated 2023)", "system": "active RhoA in MDA-MB-231 cells", "assay": "Active GTPase pull-down (GST-Rhotekin RBD)", "format": "cell-based, human", "settings": "0-3 μM, 1 h", "description": "FIG. 5: Cytoskeletal changes induced by IODVA1 treatment. IODVA1 inhibits lamellipodia and circular dorsal ruffle (CDR) formation in MDA-MB-231 cells and decreases Rac activation. (A) IODVA1 inhibits EGF-induced lamellipodia formation in MDA-MB-231 cells. MDA-MB-231 cells were plated on fibronectin-coated coverslips, serum starved for 4 h, incubated with the indicated concentrations of IODVA1 for 1 h, then EGF (50 ng/mL) stimulated, fixed and stained with Phalloidin Alexa Fluor 594 (F-Actin, pseudocolored red) and DAPI (nuclei, pseudocolored blue). […] The percentage of cells with CDRs was counted as the number of cells with CDRs normalized to the total number of cells in the field. Around 150 cells were counted per condition per experiment. Cells with multiple CDRs were counted only once. […] Levels of active Rac (RacGTP, % of control), active Cdc42 (Cdc42GTP, % of control) and active RhoA (RhoAGTP, % of control) were quantified using ImageJ and ImageLab and show combined data as mean±s.e.m. from at least 3 independent experiments. […]\nTo confirm that IODVA1 interferes with Rac activation, applicants checked the levels of active Rac and its downstream effector PAK1/2. MDA-MB-231 cells were incubated with IODVA1 (0-3 μM) for 1 h and levels of GTP-bound active Rac were measured by GST-PAK-GBD pull-downs and quantified (FIG. 5C). […]"}
{"smiles": "OC1(c2ccccn2)N=C(Nc2nc3ccccc3[nH]2)N=C1c1ccccn1", "note": "(stereo not shown) [IODVA1, (Z)-2-((1H-benzo[d]imidazol-2-yl)imino)-4,5-di(pyridin-2-yl)-2,5-dihydro-1H-imidazol-5-ol]", "values": [{"measurement": "levels of active RhoA", "value": "not affected"}]}
